From patent US12122763B2, “Substituted piperidines for androgen receptor degradation” (UBIX THERAPEUTICS, INC., priority 2020, dated 2024)

Target: T1, Androgen Receptor (AR) protein (Homo sapiens, UniProt P10275, T878A)
T1 construct: endogenous in cells; host or cells: LNCaP
Experiment: Androgen Receptor (AR) protein degradation assay in LNCaP cells, western blotting
Assay type: cell-based
Conditions: 20 h; for inhibition at 0.01 µM: 0.01 μM compound; for inhibition at 0.1 µM: 0.1 μM compound; for inhibition at 1 µM: 1 μM compound
In short: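 LNCaP prostate cancer cells were cultured 3 days, then treated with compound for 20 h. Lysates in 1% SDS buffer were normalised by BCA, and 8 μg protein was run on 4–12% Bis-Tris gels. AR was immunoblotted with chemiluminescence, using GAPDH/β-actin as loading controls.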

T1 sequence (P10275 whole entry T878A): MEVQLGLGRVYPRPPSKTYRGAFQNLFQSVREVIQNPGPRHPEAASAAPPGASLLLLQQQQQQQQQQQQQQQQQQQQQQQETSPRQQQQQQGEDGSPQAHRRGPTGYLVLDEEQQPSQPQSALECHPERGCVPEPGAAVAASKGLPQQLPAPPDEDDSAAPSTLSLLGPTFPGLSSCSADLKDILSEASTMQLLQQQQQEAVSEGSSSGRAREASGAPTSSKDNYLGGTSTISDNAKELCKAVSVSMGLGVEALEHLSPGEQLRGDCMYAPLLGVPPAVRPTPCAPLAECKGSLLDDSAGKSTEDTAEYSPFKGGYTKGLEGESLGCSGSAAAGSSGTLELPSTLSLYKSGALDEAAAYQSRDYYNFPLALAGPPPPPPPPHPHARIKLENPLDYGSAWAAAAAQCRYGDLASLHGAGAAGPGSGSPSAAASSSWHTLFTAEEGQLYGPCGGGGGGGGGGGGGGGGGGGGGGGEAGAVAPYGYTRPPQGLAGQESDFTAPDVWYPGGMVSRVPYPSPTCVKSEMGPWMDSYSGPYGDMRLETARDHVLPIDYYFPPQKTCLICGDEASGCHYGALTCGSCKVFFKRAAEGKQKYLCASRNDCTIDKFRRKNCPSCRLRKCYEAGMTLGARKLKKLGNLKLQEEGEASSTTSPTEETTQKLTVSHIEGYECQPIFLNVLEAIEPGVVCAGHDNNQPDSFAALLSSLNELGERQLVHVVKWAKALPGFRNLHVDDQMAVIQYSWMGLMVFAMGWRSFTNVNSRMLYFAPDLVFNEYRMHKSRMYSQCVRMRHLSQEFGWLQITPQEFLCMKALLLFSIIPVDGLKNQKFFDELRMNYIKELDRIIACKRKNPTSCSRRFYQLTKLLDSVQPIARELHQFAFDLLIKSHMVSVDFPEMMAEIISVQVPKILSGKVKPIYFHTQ
T1 sequence (Q96SW2 whole entry partner): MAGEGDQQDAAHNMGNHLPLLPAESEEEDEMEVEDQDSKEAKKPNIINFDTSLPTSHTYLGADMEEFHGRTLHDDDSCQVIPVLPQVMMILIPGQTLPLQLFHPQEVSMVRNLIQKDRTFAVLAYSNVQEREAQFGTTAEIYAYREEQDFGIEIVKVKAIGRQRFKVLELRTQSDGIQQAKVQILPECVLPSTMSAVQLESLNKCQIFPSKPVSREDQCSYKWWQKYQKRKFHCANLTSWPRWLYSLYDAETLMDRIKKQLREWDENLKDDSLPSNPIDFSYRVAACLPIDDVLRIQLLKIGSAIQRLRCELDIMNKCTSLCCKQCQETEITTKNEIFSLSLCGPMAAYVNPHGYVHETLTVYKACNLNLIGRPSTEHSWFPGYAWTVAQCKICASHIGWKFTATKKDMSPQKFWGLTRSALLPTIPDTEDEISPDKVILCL

N#Cc1ncc(N2CCC(C(=O)Nc3ccc(N4CCC(CN5CC6(CCN(c7ccc8c(c7)CN(C7CCC(=O)NC7=O)C8=O)CC6)C5)CC4)cn3)CC2)cc1C(F)(F)F (stereo not drawn) [Example 137, 1-(6-cyano-5-(trifluoromethyl)pyridin-3-yl)-N-(5-(4-((7-(2-(2,6-dioxopiperidin-3-yl)-1-oxoisoindolin-5-yl)-2,7-diazaspiro[3.5]nonan-2-yl)methyl)piperidin-1-yl)pyridin-2-yl)piperidine-4-carboxamide]
inhibition at 0.01 µM: 46%
inhibition at 0.1 µM: 86%
inhibition at 1 µM: 82%

N#Cc1ccc(N2CCC(C(=O)Nc3ccc(N4CCC(CCN5CC6(CCN(c7ccc8c(c7)CN(C7CCC(=O)NC7=O)C8=O)CC6)C5)CC4)cn3)CC2)cc1C(F)(F)F (stereo not drawn) [Example 138, 1-(4-cyano-3-(trifluoromethyl)phenyl)-N-(5-(4-(2-(7-(2-(2,6-dioxopiperidin-3-yl)-1-oxoisoindolin-5-yl)-2,7-diazaspiro[3.5]nonan-2-yl)ethyl)piperidin-1-yl)pyridin-2-yl)piperidine-4-carboxamide]
inhibition at 0.01 µM: 52%
inhibition at 0.1 µM: 95%
inhibition at 1 µM: 90%

N#Cc1ccc(N2CCC(C(=O)Nc3ccc(N4CCC(CCN5CCN(c6ccc7c(c6)CN(C6CCC(=O)NC6=O)C7=O)CC5)CC4)cn3)CC2)cc1C(F)(F)F (stereo not drawn) [Example 139, 1-(4-cyano-3-(trifluoromethyl)phenyl)-N-(5-(4-(2-(4-(2-(2,6-dioxopiperidin-3-yl)-1-oxoisoindolin-5-yl)piperazin-1-yl)ethyl)piperidin-1-yl)pyridin-2-yl)piperidine-4-carboxamide]
inhibition at 0.01 µM: 30%
inhibition at 0.1 µM: 92%
inhibition at 1 µM: 84%

N#Cc1ccc(N2CCC(C(=O)Nc3ccc(N4CCC(CN5CCN(C6CCN(c7ccc8c(c7)CN(C7CCC(=O)NC7=O)C8=O)CC6)CC5)CC4)cn3)CC2)cc1C(F)(F)F (stereo not drawn) [Example 140, 1-(4-cyano-3-(trifluoromethyl)phenyl)-N-(5-(4-((4-(1-(2-(2,6-dioxopiperidin-3-yl)-1-oxoisoindolin-5-yl)piperidin-4-yl)piperazin-1-yl)methyl)piperidin-1-yl)pyridin-2-yl)piperidine-4-carboxamide]
inhibition at 0.01 µM: 87%
inhibition at 0.1 µM: 98%
inhibition at 1 µM: 95%

N#Cc1ccc(N2CCC(F)(C(=O)Nc3ccc(N4CCC(CN5CCN(C6CCN(c7ccc8c(c7)CN(C7CCC(=O)NC7=O)C8=O)CC6)CC5)CC4)cn3)CC2)cc1C(F)(F)F (stereo not drawn) [Example 141, 1-(4-cyano-3-(trifluoromethyl)phenyl)-N-(5-(4-((4-(1-(2-(2,6-dioxopiperidin-3-yl)-1-oxoisoindolin-5-yl)piperidin-4-yl)piperazin-1-yl)methyl)piperidin-1-yl)pyridin-2-yl)-4-fluoropiperidine-4-carboxamide]
inhibition at 0.01 µM: 66%
inhibition at 0.1 µM: 92%
inhibition at 1 µM: 90%

N#Cc1ncc(N2CCC(C(=O)Nc3ccc(N4CCC(CN5CCN(C6CCN(c7ccc8c(c7)CN(C7CCC(=O)NC7=O)C8=O)CC6)CC5)CC4)cn3)CC2)cc1C(F)(F)F (stereo not drawn) [Example 142, 1-(6-cyano-5-(trifluoromethyl)pyridin-3-yl)-N-(5-(4-((4-(1-(2-(2,6-dioxopiperidin-3-yl)-1-oxoisoindolin-5-yl)piperidin-4-yl)piperazin-1-yl)methyl)piperidin-1-yl)pyridin-2-yl)piperidine-4-carboxamide]
inhibition at 0.01 µM: 55%
inhibition at 0.1 µM: 87%
inhibition at 1 µM: 83%

N#Cc1ccc(N2CCC(C(=O)Nc3ccc(N4CCC(CN5CCN(CC6CCN(c7ccc8c(c7)CN(C7CCC(=O)NC7=O)C8=O)CC6)CC5)CC4)cn3)CC2)cc1C(F)(F)F (stereo not drawn) [Example 143, 1-(4-cyano-3-(trifluoromethyl)phenyl)-N-(5-(4-((4-((1-(2-(2,6-dioxopiperidin-3-yl)-1-oxoisoindolin-5-yl)piperidin-4-yl)methyl)piperazin-1-yl)methyl)piperidin-1-yl)pyridin-2-yl)piperidine-4-carboxamide]
inhibition at 0.01 µM: 73%
inhibition at 0.1 µM: 97%
inhibition at 1 µM: 97%

N#Cc1ccc(N2CCC(F)(C(=O)Nc3ccc(N4CCC(CN5CCN(CC6CCN(c7ccc8c(c7)CN(C7CCC(=O)NC7=O)C8=O)CC6)CC5)CC4)cn3)CC2)cc1C(F)(F)F (stereo not drawn) [Example 144, 1-(4-cyano-3-(trifluoromethyl)phenyl)-N-(5-(4-((4-((1-(2-(2,6-dioxopiperidin-3-yl)-1-oxoisoindolin-5-yl)piperidin-4-yl)methyl)piperazin-1-yl)methyl)piperidin-1-yl)pyridin-2-yl)-4-fluoropiperidine-4-carboxamide]
inhibition at 0.01 µM: 43%
inhibition at 0.1 µM: 84%
inhibition at 1 µM: 95%

N#Cc1ncc(N2CCC(C(=O)Nc3ccc(N4CCC(CN5CCN(CC6CCN(c7ccc8c(c7)CN(C7CCC(=O)NC7=O)C8=O)CC6)CC5)CC4)cn3)CC2)cc1C(F)(F)F (stereo not drawn) [Example 145, 1-(6-cyano-5-(trifluoromethyl)pyridin-3-yl)-N-(5-(4-((4-((1-(2-(2,6-dioxopiperidin-3-yl)-1-oxoisoindolin-5-yl)piperidin-4-yl)methyl)piperazin-1-yl)methyl)piperidin-1-yl)pyridin-2-yl)piperidine-4-carboxamide]
inhibition at 0.01 µM: 20%
inhibition at 0.1 µM: 84%
inhibition at 1 µM: 88%

N#Cc1ccc(N2CCC(C(=O)Nc3ccc(N4CCC(CN5CCC(Oc6ccc7c(c6)C(=O)N(C6CCC(=O)NC6=O)C7=O)CC5)CC4)cn3)CC2)cc1C(F)(F)F (stereo not drawn) [Example 146, 1-(4-cyano-3-(trifluoromethyl)phenyl)-N-(5-(4-((4-((2-(2,6-dioxopiperidin-3-yl)-1,3-dioxoisoindolin-5-yl)oxy)piperidin-1-yl)methyl)piperidin-1-yl)pyridin-2-yl)piperidine-4-carboxamide]
inhibition at 0.01 µM: 67%
inhibition at 0.1 µM: 97%
inhibition at 1 µM: 98%

N#Cc1ccc(N2CCC(C(=O)Nc3ccc(N4CCC(CN5CCC(COc6ccc7c(c6)C(=O)N(C6CCC(=O)NC6=O)C7=O)CC5)CC4)cn3)CC2)cc1C(F)(F)F (stereo not drawn) [Example 147, 1-(4-cyano-3-(trifluoromethyl)phenyl)-N-(5-(4-((4-(((2-(2,6-dioxopiperidin-3-yl)-1,3-dioxoisoindolin-5-yl)oxy)methyl)piperidin-1-yl)methyl)piperidin-1-yl)pyridin-2-yl)piperidine-4-carboxamide]
inhibition at 0.01 µM: 68%
inhibition at 0.1 µM: 96%
inhibition at 1 µM: 97%

N#Cc1ccc(N2CCC(C(=O)Nc3ccc(N4CC(CN5CCC(Oc6ccc7c(c6)C(=O)N(C6CCC(=O)NC6=O)C7=O)CC5)C4)cn3)CC2)cc1C(F)(F)F (stereo not drawn) [Example 148, 1-(4-cyano-3-(trifluoromethyl)phenyl)-N-(5-(3-((4-((2-(2,6-dioxopiperidin-3-yl)-1,3-dioxoisoindolin-5-yl)oxy)piperidin-1-yl)methyl)azetidin-1-yl)pyridin-2-yl)piperidine-4-carboxamide]
inhibition at 0.01 µM: 27%
inhibition at 0.1 µM: 87%
inhibition at 1 µM: 93%

N#Cc1ccc(N2CCC(C(=O)Nc3ccc(N4CC(CN5CCC(COc6ccc7c(c6)C(=O)N(C6CCC(=O)NC6=O)C7=O)CC5)C4)cn3)CC2)cc1C(F)(F)F (stereo not drawn) [Example 149, 1-(4-cyano-3-(trifluoromethyl)phenyl)-N-(5-(3-((4-(((2-(2,6-dioxopiperidin-3-yl)-1,3-dioxoisoindolin-5-yl)oxy)methyl)piperidin-1-yl)methyl)azetidin-1-yl)pyridin-2-yl)piperidine-4-carboxamide]
inhibition at 0.01 µM: 56%
inhibition at 0.1 µM: 97%
inhibition at 1 µM: 97%

N#Cc1ccc(N2CCC(C(=O)Nc3ccc(N4CCC(OCCN5CCN(c6ccc7c(c6)C(=O)N(C6CCC(=O)NC6=O)C7=O)CC5)CC4)cn3)CC2)cc1C(F)(F)F (stereo not drawn) [Example 150, 1-(4-cyano-3-(trifluoromethyl)phenyl)-N-(5-(4-(2-(4-(2-(2,6-dioxopiperidin-3-yl)-1,3-dioxoisoindolin-5-yl)piperazin-1-yl)ethoxy)piperidin-1-yl)pyridin-2-yl)piperidine-4-carboxamide]
inhibition at 0.01 µM: 55%
inhibition at 0.1 µM: 97%
inhibition at 1 µM: 99%

N#Cc1ccc(N2CCC(C(=O)Nc3ccc(N4CCC(OCCN5CCN(c6ccc7c(c6)C(=O)N(C6CCC(=O)NC6=O)C7=O)CC5)CC4)cn3)CC2)cc1Cl (stereo not drawn) [Example 151, 1-(3-chloro-4-cyanophenyl)-N-(5-(4-(2-(4-(2-(2,6-dioxopiperidin-3-yl)-1,3-dioxoisoindolin-5-yl)piperazin-1-yl)ethoxy)piperidin-1-yl)pyridin-2-yl)piperidine-4-carboxamide]
inhibition at 0.01 µM: -14%
inhibition at 0.1 µM: 76%
inhibition at 1 µM: 92%

N#Cc1ccc(N2CCC(C(=O)Nc3ccc(N4CCC(OCCN5CCN(c6cccc7c6C(=O)N(C6CCC(=O)NC6=O)C7=O)CC5)CC4)cn3)CC2)cc1C(F)(F)F (stereo not drawn) [Example 152, 1-(4-cyano-3-(trifluoromethyl)phenyl)-N-(5-(4-(2-(4-(2-(2,6-dioxopiperidin-3-yl)-1,3-dioxoisoindolin-4-yl)piperazin-1-yl)ethoxy)piperidin-1-yl)pyridin-2-yl)piperidine-4-carboxamide]
inhibition at 0.01 µM: -46%
inhibition at 0.1 µM: 28%
inhibition at 1 µM: 29%

N#Cc1ccc(N2CCC(C(=O)Nc3ccc(N4CCC(O)(CCN5CCN(c6ccc7c(c6)C(=O)N(C6CCC(=O)NC6=O)C7=O)CC5)CC4)cn3)CC2)cc1C(F)(F)F (stereo not drawn) [Example 153, 1-(4-cyano-3-(trifluoromethyl)phenyl)-N-(5-(4-(2-(4-(2-(2,6-dioxopiperidin-3-yl)-1,3-dioxoisoindolin-5-yl)piperazin-1-yl)ethyl)-4-hydroxypiperidin-1-yl)pyridin-2-yl)piperidine-4-carboxamide]
inhibition at 0.01 µM: 56%
inhibition at 0.1 µM: 95%
inhibition at 1 µM: 97%
